From patent publication US11008304B2, “Tetrazole containing apoptosis signal-regulating kinase 1 inhibitors and methods of use thereof” (ENANTA PHARMACEUTICALS, INC., priority 2018, dated 2021)

target: ASK1 kinase (Homo sapiens (Human), UniProt Q99683); test: HTRF KinEASE assay of ASK1 kinase activity inhibition; assay type: biochemical; settings: 5 nM ASK1, 1 uM STK3 peptide substrate, 100 uM ATP, TR-FRET readout
Description: The ability (IC50) of compounds to inhibit ASK1 kinase activity was determined by HTRF® KinEASE™ Assay System. ASK1 was purchased from Thermofisher (Catalogue #PV4011), ATP was purchased from Sigma (Catalogue #A7699), HTRF® KinEASE™ Assay System was obtained from Cisbio (Bedford, Mass.). ½ Area plate was purchased from Perkin Elmer (Catalogue ##6005560). HTRF® KinEASE™-STK is a generic method for measuring serine/threonine kinase activities using a time-resolved fluorescence resonance energy transfer (TR-FRET) immunoassay. The IC50 value for each compound was determined in the presence of compound (various concentration from 0 to 10 μM) and a fixed amount of ATP and peptide substrates. The test compound, 1 uM STK3 peptide substrate, and 5 nM of ASK1 kinase are incubated with kinase reaction buffer containing 50 mM HEPES pH 7.5, 0.01% BRIJ-35, 10 mM MgCl2, and 1 mM EGTA for 30 minutes. 100 uM ATP is added to start kinase reaction and incubated for 3 hours. The STK3-antibody labeled with Eu^3+-Cryptate and 125 nM streptavidin-XL665 are mixed in a single addition with stop reagents provided by the Cisbio kit used to stop the kinase reaction. Fluorescence is detected using an Envision Multilabeled 2014 reader from PerkinElmer. The Fluorescence is measured at 615 nm (Cryptate) and 665 nm (XL665) and a ratio of 665 nm/615 nm is calculated for each well. The resulting TR-FRET is proportional to the phosphorylation level. Staurosporine was used as the positive control. IC50 was determined by XLfit 5.3. By using above method, the inhibition of ASK1 was tested for the compound of formula (I). IC50 ranges are as follows: A<1 nM; 1 nM<B<10 nM; 10 nM<C<100 nM; 100 nM<D<1 μM; E>1 μM.

ASK1 kinase, sequence (Q99683 whole entry): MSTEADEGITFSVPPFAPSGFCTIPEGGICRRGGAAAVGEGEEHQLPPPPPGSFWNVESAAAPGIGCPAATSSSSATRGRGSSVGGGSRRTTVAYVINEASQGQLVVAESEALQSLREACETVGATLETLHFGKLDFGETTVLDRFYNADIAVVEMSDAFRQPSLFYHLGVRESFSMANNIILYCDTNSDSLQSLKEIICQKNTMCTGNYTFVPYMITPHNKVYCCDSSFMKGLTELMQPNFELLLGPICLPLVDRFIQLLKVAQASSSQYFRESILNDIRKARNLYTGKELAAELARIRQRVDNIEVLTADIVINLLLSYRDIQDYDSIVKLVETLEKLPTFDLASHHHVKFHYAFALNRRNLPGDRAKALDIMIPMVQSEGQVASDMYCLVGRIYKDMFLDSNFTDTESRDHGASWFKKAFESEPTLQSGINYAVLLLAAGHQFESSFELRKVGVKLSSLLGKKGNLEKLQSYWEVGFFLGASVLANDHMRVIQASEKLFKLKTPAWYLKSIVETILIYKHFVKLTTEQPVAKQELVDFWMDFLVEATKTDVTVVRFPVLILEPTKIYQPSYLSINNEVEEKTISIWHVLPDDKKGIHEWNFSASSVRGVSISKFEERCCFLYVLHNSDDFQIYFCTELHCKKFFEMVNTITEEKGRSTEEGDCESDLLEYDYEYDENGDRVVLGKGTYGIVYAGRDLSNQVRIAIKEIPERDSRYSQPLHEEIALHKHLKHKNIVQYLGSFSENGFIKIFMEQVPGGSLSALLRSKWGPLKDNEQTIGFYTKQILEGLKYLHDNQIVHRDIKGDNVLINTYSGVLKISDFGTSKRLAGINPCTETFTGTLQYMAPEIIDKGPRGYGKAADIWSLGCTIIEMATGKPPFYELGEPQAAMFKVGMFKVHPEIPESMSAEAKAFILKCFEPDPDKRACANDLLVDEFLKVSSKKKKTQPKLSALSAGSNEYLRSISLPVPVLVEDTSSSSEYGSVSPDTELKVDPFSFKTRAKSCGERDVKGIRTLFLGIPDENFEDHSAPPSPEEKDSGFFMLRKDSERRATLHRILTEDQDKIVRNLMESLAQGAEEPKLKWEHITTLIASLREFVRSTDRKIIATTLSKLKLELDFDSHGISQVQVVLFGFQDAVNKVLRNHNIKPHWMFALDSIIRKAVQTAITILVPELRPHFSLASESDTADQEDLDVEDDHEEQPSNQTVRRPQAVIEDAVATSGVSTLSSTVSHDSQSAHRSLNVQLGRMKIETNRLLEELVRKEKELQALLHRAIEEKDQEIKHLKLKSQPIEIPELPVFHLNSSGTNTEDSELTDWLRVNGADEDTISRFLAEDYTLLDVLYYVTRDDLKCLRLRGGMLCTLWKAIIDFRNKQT

IC50 | Structure (SMILES)
0.01 to 0.1 µM | CC(C)n1nnnc1-c1cccc(NC(=O)c2cc(-c3cnn(C4CC4)c3)ccn2)n1 [Example 1]
0.01 to 0.1 µM | Cc1cnc(C(=O)Nc2cccc(-c3nnnn3C(C)C)n2)cc1-c1cnn(C2CC2)c1 [Example 2]
0.01 to 0.1 µM | CC(C)n1nnnc1-c1cccc(NC(=O)c2cc(-c3cnn(C4CC4)c3)c(F)cn2)n1 [Example 3]
0.01 to 0.1 µM | CC(C)n1nnnc1-c1cccc(NC(=O)c2cc(-c3cnn(C4CC4)c3)c(N3CCCC3)cn2)n1 [Example 4]
0.01 to 0.1 µM | CC(C)n1nnnc1-c1cccc(NC(=O)c2cc(-c3cnn(C4CC4)c3)c(N3CCCCC3)cn2)n1 [Example 5]
0.001 to 0.01 µM | CC(C)n1nnnc1-c1cccc(NC(=O)c2cc(-c3cnn(C4CC4)c3)c(N3CCOCC3)cn2)n1 [Example 6]
0.001 to 0.01 µM | CC(C)n1nnnc1-c1cccc(NC(=O)c2cc(-c3cnn(C4CC4)c3)c(N3CCN(C)CC3)cn2)n1 [Example 7]
0.01 to 0.1 µM | CC(C)n1nnnc1-c1nc(NC(=O)c2cc(-c3cnn(C4CC4)c3)c(F)cn2)cs1 [Example 8]
0.001 to 0.01 µM | CC(C)n1nnnc1-c1nc(NC(=O)c2cc(-c3cnn(C4CC4)c3)c(N3CCCC3)cn2)cs1 [Example 9]
0.001 to 0.01 µM | CC(C)n1nnnc1-c1nc(NC(=O)c2cc(-c3cnn(C4CC4)c3)c(N3CCOCC3)cn2)cs1 [Example 10]
0.01 to 0.1 µM | CC(C)n1nnnc1-c1nc(NC(=O)c2cc(-c3cnn(C4CC4)c3)c(N3CCCCC3)cn2)cs1 [Example 11]
0.001 to 0.01 µM | CC(C)n1nnnc1-c1nc(NC(=O)c2cc(-c3cnn(C4CC4)c3)c(N3CCN(C)CC3)cn2)cs1 [Example 12]
0.001 to 0.01 µM | Cc1cnc(C(=O)Nc2cccc(-c3nnnn3[C@H](C)CO)n2)cc1-c1cnn(C2CC2)c1 [Example 13]
0.01 to 0.1 µM | CC(C)n1nnnc1-c1cccc(NC(=O)c2cc(-c3cnn(C4CC4)c3)c(C(F)(F)F)cn2)n1 [Example 14]
0.01 to 0.1 µM | CC(C)n1nnnc1-c1nc(NC(=O)c2cc(-c3cnn(C4CC4)c3)c(C(F)(F)F)cn2)cs1 [Example 15]
0.001 to 0.01 µM | C[C@H](CO)n1nnnc1-c1cccc(NC(=O)c2cc(-c3cnn(C4CC4)c3)c(C(F)(F)F)cn2)n1 [Example 16]
0.01 to 0.1 µM | Cc1cnc(C(=O)Nc2cccc(-n3nnnc3C(C)C)n2)cc1-c1cnn(C2CC2)c1 [Example 17]
0.001 to 0.01 µM | CC(C)n1nnnc1-c1cccc(NC(=O)c2cc(-c3cnn(C4CC4)c3)c(C(F)F)cn2)n1 [Example 18]
0.001 to 0.01 µM | CC(C)n1nnnc1-c1nc(NC(=O)c2cc(-c3cnn(C4CC4)c3)c(C(F)F)cn2)cs1 [Example 19]
0.001 to 0.01 µM | Cc1cnc(C(=O)Nc2cccc(-c3nnnn3C(C)C)n2)cc1-c1cnn(C(C)(C)C)c1 [Example 20]
0.01 to 0.1 µM | Cc1cnc(C(=O)Nc2cccc(-n3nnnc3C(C)C)n2)cc1-c1cnn(C(C)(C)C)c1 [Example 21]
0.001 to 0.01 µM | Cc1cnc(C(=O)Nc2cccc(-c3nnnn3[C@H](C)CO)n2)cc1-c1cnn(C(C)(C)C)c1 [Example 22]
0.01 to 0.1 µM | Cc1cnc(C(=O)Nc2cccc(-c3nnnn3C(C)C)n2)cc1-c1cn(C(C)C)cn1 [Example 23]

IC50 | Structure (SMILES)
> 1 µM | Cc1cnc(C(=O)Nc2cccc(-n3nnnc3C(C)C)n2)cc1-c1cn(C(C)C)cn1 [Example 24]
0.001 to 0.01 µM | Cc1cnc(C(=O)Nc2cccc(-c3nnnn3[C@H](C)CO)n2)cc1-c1cn(C(C)C)cn1 [Example 25]
0.001 to 0.01 µM | Cc1cnc(C(=O)Nc2cccc(-c3nnnn3C(C)C)n2)cc1-c1cnn(C(C)C)c1 [Example 26]
0.001 to 0.01 µM | Cc1cnc(C(=O)Nc2cccc(-n3nnnc3C(C)C)n2)cc1-c1cnn(C(C)C)c1 [Example 27]
0.001 to 0.01 µM | Cc1cnc(C(=O)Nc2cccc(-c3nnnn3[C@H](C)CO)n2)cc1-c1cnn(C(C)C)c1 [Example 28]
0.001 to 0.01 µM | C[C@H](CO)n1nnnc1-c1cccc(NC(=O)c2cc(-c3cnn(C4CC4)c3)c(C(F)F)cn2)n1 [Example 29]
0.01 to 0.1 µM | Cc1cnc(C(=O)Nc2cccc(-c3nnnn3C(C)C)n2)cc1-c1cnn(C(F)(F)F)c1 [Example 30]
> 1 µM | Cc1cnc(C(=O)Nc2cccc(-n3nnnc3C(C)C)n2)cc1-c1cnn(C(F)(F)F)c1 [Example 31]
0.001 to 0.01 µM | Cc1cnc(C(=O)Nc2cccc(-c3nnnn3[C@H](C)CO)n2)cc1-c1cnn(C(F)(F)F)c1 [Example 32]
0.01 to 0.1 µM | Cc1cnc(C(=O)Nc2cccc(-c3nnnn3C(C)C)n2)cc1-c1ccn(C(C)C)n1 [Example 33]
> 1 µM | Cc1cnc(C(=O)Nc2cccc(-n3nnnc3C(C)C)n2)cc1-c1ccn(C(C)C)n1 [Example 34]
0.001 to 0.01 µM | Cc1cnc(C(=O)Nc2cccc(-c3nnnn3[C@H](C)CO)n2)cc1-c1ccn(C(C)C)n1 [Example 35]
0.01 to 0.1 µM | Cc1cnc(C(=O)Nc2cccc(-c3nnnn3C(C)C)n2)cc1-c1ccccn1 [Example 36]
0.001 to 0.01 µM | Cc1cnc(C(=O)Nc2cccc(-c3nnnn3C(C)C)n2)cc1-c1cccnc1 [Example 37]
0.01 to 0.1 µM | Cc1cnc(C(=O)Nc2cccc(-c3nnnn3C(C)C)n2)cc1-c1ccncc1 [Example 38]
0.001 to 0.01 µM | Cc1ncc(-c2cc(C(=O)Nc3cccc(-c4nnnn4C(C)C)n3)ncc2C)s1 [Example 39]
0.01 to 0.1 µM | Cc1nc(-c2cc(C(=O)Nc3cccc(-c4nnnn4C(C)C)n3)ncc2C)cs1 [Example 40]
0.001 to 0.01 µM | Cc1cnc(C(=O)Nc2cccc(-c3nnnn3[C@H](C)CO)n2)cc1-c1cccnc1 [Example 41]
0.001 to 0.01 µM | Cc1cnc(C(=O)Nc2cccc(-c3nnnn3C(C)C)n2)cc1-c1cnc(C2CC2)s1 [Example 42]
0.001 to 0.01 µM | Cc1cnc(C(=O)Nc2cccc(-c3nnnn3[C@H](C)CO)n2)cc1-c1cnc(C2CC2)s1 [Example 43]
0.01 to 0.1 µM | Cc1cnc(C(=O)Nc2cccc(-c3nnnn3C(C)C)n2)cc1-c1ccc(C2CC2)s1 [Example 44]
0.001 to 0.01 µM | Cc1cnc(C(=O)Nc2cccc(-c3nnnn3[C@H](C)CO)n2)cc1-c1ccc(C2CC2)s1 [Example 45]
0.001 to 0.01 µM | Cc1cc(F)c(C(=O)Nc2cccc(-c3nnnn3C(C)C)n2)cc1-c1cnn(C2CC2)c1 [Example 46]

IC50 | Structure (SMILES)
0.001 to 0.01 µM | Cc1cc(F)c(C(=O)Nc2cccc(-c3nnnn3[C@H](C)CO)n2)cc1-c1cnn(C2CC2)c1 [Example 47]
0.001 to 0.01 µM | Cc1cc(F)c(C(=O)Nc2cccc(-c3nnnn3C(C)C)n2)cc1-c1cnn(C(C)C)c1 [Example 49]
0.001 to 0.01 µM | Cc1cc(F)c(C(=O)Nc2cccc(-c3nnnn3[C@H](C)CO)n2)cc1-c1cnn(C(C)C)c1 [Example 50]
0.001 to 0.01 µM | Cc1cc(F)c(C(=O)Nc2cccc(-n3nnnc3C(C)C)n2)cc1-c1cnn(C(C)C)c1 [Example 51]
0.001 to 0.01 µM | Cc1cc(F)c(C(=O)Nc2cccc(-c3nnnn3C(C)C)n2)cc1-c1cnn(C(C)(C)C)c1 [Example 52]
0.001 to 0.01 µM | Cc1cc(F)c(C(=O)Nc2cccc(-n3nnnc3C(C)C)n2)cc1-c1cnn(C(C)(C)C)c1 [Example 53]
0.001 to 0.01 µM | Cc1cc(F)c(C(=O)Nc2cccc(-c3nnnn3[C@H](C)CO)n2)cc1-c1cnn(C(C)(C)C)c1 [Example 54]
0.01 to 0.1 µM | Cc1cc(F)c(C(=O)Nc2cccc(-c3nnnn3C(C)C)n2)cc1-c1cnn(C(F)(F)F)c1 [Example 55]
0.1 to 1 µM | Cc1cc(F)c(C(=O)Nc2cccc(-n3nnnc3C(C)C)n2)cc1-c1cnn(C(F)(F)F)c1 [Example 56]
0.001 to 0.01 µM | Cc1cc(F)c(C(=O)Nc2cccc(-c3nnnn3[C@H](C)CO)n2)cc1-c1cnn(C(F)(F)F)c1 [Example 57]
0.01 to 0.1 µM | Cc1cc(F)c(C(=O)Nc2cccc(-c3nnnn3C(C)C)n2)cc1-c1ccn(C(C)C)n1 [Example 58]
> 1 µM | Cc1cc(F)c(C(=O)Nc2cccc(-n3nnnc3C(C)C)n2)cc1-c1ccn(C(C)C)n1 [Example 59]
0.01 to 0.1 µM | Cc1cc(F)c(C(=O)Nc2cccc(-c3nnnn3[C@H](C)CO)n2)cc1-c1ccn(C(C)C)n1 [Example 60]
0.01 to 0.1 µM | Cc1cc(F)c(C(=O)Nc2cccc(-c3nnnn3C(C)C)n2)cc1-c1cn(C(C)C)cn1 [Example 61]
> 1 µM | Cc1cc(F)c(C(=O)Nc2cccc(-n3nnnc3C(C)C)n2)cc1-c1cn(C(C)C)cn1 [Example 62]
0.01 to 0.1 µM | Cc1cc(F)c(C(=O)Nc2cccc(-c3nnnn3[C@H](C)CO)n2)cc1-c1cn(C(C)C)cn1 [Example 63]
0.1 to 1 µM | Cc1cc(F)c(C(=O)Nc2cccc(-c3nnnn3C(C)C)n2)cc1-c1ccccn1 [Example 64]
0.001 to 0.01 µM | Cc1cc(F)c(C(=O)Nc2cccc(-c3nnnn3C(C)C)n2)cc1-c1cccnc1 [Example 65]
0.01 to 0.1 µM | Cc1cc(F)c(C(=O)Nc2cccc(-c3nnnn3C(C)C)n2)cc1-c1ccncc1 [Example 66]
0.01 to 0.1 µM | Cc1ncc(-c2cc(C(=O)Nc3cccc(-c4nnnn4C(C)C)n3)c(F)cc2C)s1 [Example 67]
0.1 to 1 µM | Cc1nc(-c2cc(C(=O)Nc3cccc(-c4nnnn4C(C)C)n3)c(F)cc2C)cs1 [Example 68]
